Reference: patent publication US20260374817A1, “COMPOSITIONS COMPRISING TREM-1 INHIBITORS AND USES THEREOF” (INOTREM, priority 2023, published 2026)
Entries after “also recorded” stand apart in the source; their conditions may differ.

Tests used:
TREM-1 pathway = assay: ROS production by LPS-stimulated human primary neutrophils (DCFDA, flow cytometry, MFI); format: cell-based; settings: for decrease of LPS-induced ROS production: 100 ng/mL LPS, 2 hours, 37 °C, LR12 or LR12-dimer 10 and 50 μg/mL; for TREM-1 inhibiting property / biological activity: preclinical in vitro pharmacology model
Protocol: FIG. 1 is a graph showing the results from flow cytometric quantification (DCFDA reduction) of neutrophils ROS production after 2 hours stimulation with LPS, LPS+10 μg/mL LR12, LPS+50 μg/mL LR12, LPS+10 μg/mL LR12-dimer (dimer), LPS+50 μg/mL LR12-dimer (dimer). […]; **p<0.01 (T test).
Neutrophils produce reactive oxygen species (ROS) in presence of LPS (lipopolysaccharides) following activation of the TREM-1 pathway and are thus used in the present example in order to assess TREM-1 activation and the biological activity of the LR12 dimer on the TREM-1 pathway. ROS production induced by TREM-1 activation and its modulation by LR12 can be quantified by flow cytometry. Any decrease in ROS production by LR12 (LPS+LR12 conditions) translates into a decrease in mean fluorescence intensity (MFI) as compared to the ROS production observed following the TREM-1 activation in presence of LPS (LPS condition).
Primary human neutrophils were isolated from the peripheral blood of healthy donors by immunomagnetic negative cell sorting with EasySep™ Human Monocyte/Neutrophil Isolation Kits (StemCell, Canada) following the manufacturer's instructions. Purity was assessed by flow cytometry. Cells were suspended in RPMI 1640 medium containing GlutaMAX and supplemented with 10% FCS, 25 mM HEPES, 100 U/ml penicillin and streptomycin before stimulation. Human primary neutrophils were incubated in resting conditions (also referred to as control conditions or ctrl 2), or with 100 ng/mL LPS from E. coli serotype 0127: B8 (Sigma-Aldrich), with or without LR12 or LR12-dimer (dimer) at the indicated concentrations.
Upon cleavage of the acetate groups by intracellular esterases and oxidation, the nonfluorescent DCFDA is converted to the highly fluorescent 2′,7′-dichlorofluorescein (DCF). 2.5×10^5 isolated human neutrophils were incubated 2 hours at 37 °C-5% CO2 with 5 μM of DCFDA, with or without 100 ng/mL LPS, and with or without LR12 or LR12-dimer (dimer) at the indicated concentrations. Data were acquired using flow cytometry. Results are expressed as mean fluorescence intensity (MFI).

[1] = Solubility of LR12 in formulations / screening of solubility aids; format: physicochemical
Protocol: Briefly, to reduce the formation of disulfide bridges, the pH during the formulation process was reduced to below 6.0. However, LR12 contains 4 acidic, negatively charged amino acids, namely glutamate (Glu) and aspartate (Asp) and no basic amino acids.
To solve this problem, solubility aids were screened at pH 5.5 and 6.5.
The purified substance of LR12 peptide (of example 2) is formulated using the following excipients: 50 mM sodium citrate pH 5.5; 50 mM NaCl.
The purified substance of LR12 peptide (of example 2) is formulated using the following excipients: 50 mM sodium phosphate pH 6.5; 50 mM NaCl.
The purified substance of LR12 peptide (of example 2) is formulated using the following excipients: 50 mM sodium citrate pH 5.5; 200 mM mannitol.
The purified substance of LR12 peptide (of example 2) is formulated using the following excipients: 50 mM sodium citrate pH 5.5; 150 mM betaine.
The purified substance of LR12 peptide (of example 2) is formulated using the following excipients: 5 0 mM sodium citrate pH 5.5; 50 mM lysine; 50 mM NaCl.
The purified substance of LR12 peptide (of example 2) is formulated using the following excipients: 50 mM sodium citrate pH 5.5; 50 mM arginine.
The purified substance of LR12 peptide (of example 2) is formulated using the following excipients: 25 mM sodium citrate pH 5.5; 225 mM arginine; 65 mM HCl.
Formulations using incremental concentrations of the purified substance of LR12 peptide (of example 2) and incremental concentrations of the following excipients: Arginine 90 to 420 mM, using only HCl for pH adjustment to 5.5.

TREM-1 signaling = settings: Derive et al., 2012; cited from earlier work
[2] = tested on: adult minipig model of induced sepsis; settings: after induction of fecal peritonitis; Derive et al., 2013; cited from earlier work

## CSCC[C@H](NC(=O)[C@H](CSSC[C@H](NC(=O)CNC(=O)[C@H](Cc1ccc(O)cc1)NC(=O)[C@H](CCC(=O)O)NC(=O)CNC(=O)[C@H](C)NC(=O)[C@H](CC(=O)O)NC(=O)[C@H](CCC(=O)O)NC(=O)[C@H](CCC(=O)O)NC(=O)[C@H](CCC(N)=O)NC(=O)[C@@H](N)CC(C)C)C(=O)N[C@@H](CCSC)C(N)=O)NC(=O)CNC(=O)[C@H](Cc1ccc(O)cc1)NC(=O)[C@H](CCC(=O)O)NC(=O)CNC(=O)[C@H](C)NC(=O)[C@H](CC(=O)O)NC(=O)[C@H](CCC(=O)O)NC(=O)[C@H](CCC(=O)O)NC(=O)[C@H](CCC(N)=O)NC(=O)[C@@H](N)CC(C)C)C(N)=O [LR12 dimer]
TREM-1 pathway
  decrease of LPS-induced ROS production: not able to decrease the production of ROS by LPS-activated neutrophils
  TREM-1 inhibiting property / biological activity: did not display any TREM-1 inhibiting property; also recorded: inactive in a preclinical in vitro pharmacology model; also recorded: biologically inactive
TREM-1 pathway; listed as LR12-dimer
  TREM-1 inhibiting property / biological activity: not able to induce any pharmacological inhibition of TREM-1

## CSCC[C@H](NC(=O)[C@H](CS)NC(=O)CNC(=O)[C@H](Cc1ccc(O)cc1)NC(=O)[C@H](CCC(=O)O)NC(=O)CNC(=O)[C@H](C)NC(=O)[C@H](CC(=O)O)NC(=O)[C@H](CCC(=O)O)NC(=O)[C@H](CCC(=O)O)NC(=O)[C@H](CCC(N)=O)NC(=O)[C@@H](N)CC(C)C)C(N)=O [LR12]
[1]; below pH 5.0
  solubility below pH 5.0: barely soluble below pH 5.0
[1]; pH 5.5 and 6.5, Tween 20, mannitol, sucrose, trehalose, betaine, urea, glutathione, ammonium acetate, citrate
  solubility with solubility aids (no improvement): failed to improve the solubility of LR12
[1]; screened at pH 5.5 and 6.5, only by adding lysine or arginine or histidine, read-out: solubility reached with positively charged solubility enhancing agents
  solubility: 40 mg/mL
TREM-1 signaling
  anti-inflammatory properties: exhibit anti-inflammatory properties by inhibiting TREM-1 signaling
[2]
  cardiovascular failure: reduced cardiovascular failure
  survival: improved survival
TREM-1 pathway
  decrease of LPS-induced ROS production: able to decrease in a dose-dependent manner the LPS-induced release of ROS
